{
  "source": "patent US11767520B2",
  "about": "“Compositions and methods for treating lung inflammation” (aTyr Pharma, Inc., priority 2017, dated 2023)",
  "key": {"[1]": {"system": "bleomycin-induced lung fibrosis", "assay": "Histological fibrosis (modified Ashcroft) score, BLM mouse model (Example 1)", "format": "in vivo, mouse (male C57Bl/6J)", "settings": "BLM-induced mice", "procedure": "The five lung lobes were collected and isolated. Wet weight of the medial and accessory lung lobes was recorded. The lobes were then snap frozen and stored at <−70° C. until use for hydroxyproline analysis. The left lung lobe was inflated and fixed for 48 hours in 4% formaldehyde and embedded in paraffin for histological analysis. The cranial lung lobe was snap frozen and stored at −80° C. until shipment to Kinemed for the determination of new collagen formation.\nSections of the left lung lobe were stained using Masson's Trichrome and were scored in a blinded fashion using a modified Ashcroft score (Hubner et al., BioTechniques. 44:507-511, 514-507, 2008). Hydroxyproline content was determined in the medial and accessory lung lobes using acid hydrolysis followed by a chromogenic assay (QuickZyme Biosciences, Leiden, Netherlands). Newly formed collagen was measured in the cranial lung lobe by Kinemed Inc., Emeryville, USA using the fraction of body water enriched in 2H for normalization."}, "[2]": {"assay": "Body weight, BLM rat model (Example 2)", "format": "in vivo, rat (male Sprague Dawley)", "settings": "BLM-induced rats; Nintedanib 60 mg/kg PO daily; Test Article = HRS^FC1 0.1-3 mg/kg IV weekly", "procedure": "(§1) PBS or BLM was administered under isoflurane anesthesia.\n(§2) In-life, body weights were measured and clinical observations were conducted daily. On Day 8 and Day 15, animals were removed from their home cages and placed individually into whole body plethysmography chambers. After a 20-minute acclimatization phase, respiratory parameters were recorded for 10 minutes."}, "[3]": {"system": "bleomycin-induced respiratory impairment", "assay": "Respiratory measurements by whole body plethysmography, BLM rat model (Example 2, Table E4)", "format": "in vivo, rat (male Sprague Dawley)", "settings": "for Expiratory Time / Inspiratory Time / Peak Expiratory Flow / Peak Inspiratory Flow / Tidal Volume / Respiratory Rate / Respiratory Minute Volume: Ninte. 60 mg/kg PO daily from Day 1, mean; for Respiratory Rate: in breaths/min (unit assumed); for Respiratory Minute Volume: in mL/min (unit assumed)", "procedure": "as §1, §2"}, "[4]": {"system": "bleomycin-induced lung inflammation", "assay": "Histological inflammatory cell infiltrate and type II pneumocyte hyperplasia scores, BLM rat model (Example 2)", "format": "in vivo, rat (male Sprague Dawley)", "settings": "BLM-induced rats, Day 22; Nintedanib PO; Test Article = HRS^FC1 1 mg/kg on Days 2, 9 and 16; FIG. 5", "procedure": "The five lung lobes were collected and weighed. The right lung lobes were inflated and fixed in 10% neutral buffered formalin and embedded in paraffin for histological analysis. An approximately 50 mg piece of the left lung lobe was snap frozen and stored at −80° C. for potential RNA analysis. The remainder of the lobe was also snap frozen until analyzed for collagen content.\n(§3) Sections for histology were stained using picrosirius red and were scored in a blinded fashion (1 score for each of the 4 lobes) by a veterinary pathologist using a modified Ashcroft score (Hubner et al., 2008). Hydroxyproline content was determined in the left lung lobe using a mass spectrometry method.\n(§4) Slides were read by a veterinary pathologist and each of the 4 lobes evaluated was assigned 4 scores [Ashcroft for fibrosis (scores range from 0 to 8), perivascular/peribronchiolar inflammatory cell infiltrate (scores range from 0 to 5), interstitial/alveolar inflammatory cell infiltrate (scores range from 0 to 5), type II pneumocyte hyperplasia (scores range from 0 to 5)]."}, "[5]": {"system": "bleomycin-induced lung inflammation", "assay": "Interstitial/alveolar inflammatory cell infiltrate score, BLM rat model, combination study (Example 3)", "format": "in vivo, rat (male Sprague Dawley)", "settings": "BLM-induced rats; alone or in combination, vs PO plus IV vehicles; data not shown", "procedure": "The five lung lobes were collected and weighed. On Day 17, the right accessory lobe was retained and desiccated to obtain dry weight. The remaining right lung lobes were inflated and fixed in 10% neutral buffered formalin and embedded in paraffin for histological analysis. An approximately 50 mg piece of the left lung lobe was snap frozen and stored at −80° C. for potential RNA analysis. The remainder of the lobe was also snap frozen until analyzed for collagen content.\nas §3, with “3-4” for “4”\nas §4, with “the 3” for “the 4”, “4 score types” for “4 scores”"}},
  "data": [
    {"compound": "COC(=O)c1ccc2c(c1)NC(=O)/C2=C(\\Nc1ccc(N(C)C(=O)CN2CCN(C)CC2)cc1)c1ccccc1", "note": "[Nintedanib, nintedanib]", "values": [
      {"measurement": "Group mean histological (Ashcroft) score, significance vs respective vehicle", "setting": "[1]; left lung lobe, Day 21, dexamethasone/Nintedanib PO, Test Article = HisRS1^N8 IV", "result": "did not result in a significant decrease"},
      {"measurement": "Overall effects in this experiment", "setting": "[1]; Nintedanib 60 mg/kg/dose from day of BLM instillation", "result": "no significant effects"},
      {"measurement": "Body weight curves vs respective controls", "setting": "[2]", "result": "None of the groups treated with Nintedanib or Test Article had body weight curves that significantly differed"},
      {"measurement": "BLM-induced alterations in respiratory parameters", "setting": "[3]; BLM-induced rats, Day 15, Nintedanib 60 mg/kg PO, Test Article = HRS^FC1 IV weekly", "result": "did not significantly impact"},
      {"measurement": "Respiratory minute volume (RMV)", "setting": "[3]; BLM-induced rats, Day 15, Nintedanib PO, Test Article = HRS^FC1 0.1-3 mg/kg from Day 9 or Day 2, FIG. 3", "result": "no impact on RMV"},
      {"measurement": "Expiratory Time", "setting": "[3]; Day 8", "result": 0.12, "unit": "s"},
      {"measurement": "Inspiratory Time", "setting": "[3]; Day 8", "result": 0.09, "unit": "s"},
      {"measurement": "Peak Expiratory Flow", "setting": "[3]; Day 8", "result": 28.4},
      {"measurement": "Peak Inspiratory Flow", "setting": "[3]; Day 8", "result": 26.7},
      {"measurement": "Tidal Volume", "setting": "[3]; Day 8", "result": 1.5, "unit": "mL"},
      {"measurement": "Respiratory Rate", "setting": "[3]; Day 8", "result": 313.0},
      {"measurement": "Respiratory Minute Volume", "setting": "[3]; Day 8", "result": 477.5},
      {"measurement": "Expiratory Time", "setting": "[3]; Day 15", "result": 0.12, "unit": "s"},
      {"measurement": "Inspiratory Time", "setting": "[3]; Day 15", "result": 0.09, "unit": "s"},
      {"measurement": "Peak Expiratory Flow", "setting": "[3]; Day 15", "result": 28.8},
      {"measurement": "Peak Inspiratory Flow", "setting": "[3]; Day 15", "result": 29.0},
      {"measurement": "Tidal Volume", "setting": "[3]; Day 15", "result": 1.6, "unit": "mL"},
      {"measurement": "Respiratory Rate", "setting": "[3]; Day 15", "result": 317.3},
      {"measurement": "Respiratory Minute Volume", "setting": "[3]; Day 15", "result": 534.6},
      {"measurement": "Interstitial/alveolar inflammatory cell infiltrate score", "setting": "[4]", "result": "no effect on interstitial inflammatory cell infiltrate"},
      {"measurement": "Interstitial inflammatory cell infiltrate", "setting": "[5]", "result": "no significant effect"}
    ]}
  ]
}
